Assay in all cases: NCI anticancer screen, dose series, 48 h
Assay [1] has as its system MALME-3M melanoma.
Assay [2] concerns OVCAR-4 ovarian.
The test system of assay [3] is OVCAR-3 ovarian.
Assay [4] deals with HT29 colon.
For assay [5], the system named is UACC-257 melanoma.
In assay [6] the test system is UO-31 renal.
In assay [7] the test system is M14 melanoma.
Assay [8] has as its system NCI-H226 lung.
Assay [9] deals with SF-268 CNS.
In assay [10] the test system is MDA-MB-435.
Assay [11] concerns NCI-H460 lung.
The subject of assay [12] is SF-295 CNS.
Assay [13] deals with SF-539 CNS.
The subject of assay [14] is MDA-MB-231 breast.
For assay [15], the system named is BT-549 breast.
In assay [16] the test system is RPMI-8226 leukemia.
The test system of assay [17] is NCI-H522 lung.

The structures appear in SMILES notation.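 Interpolation was linear, between the two tested concentrations surrounding the appropriate level; five concentrations were tested over 48 hours in 96-well plates. TGI is the concentration that stops growth completely.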 A value given as a limit tells only on which side of the number the result lay.

`C=CCN(c1cc(O)c2c(c(C)cn2S(=O)(=O)c2ccccc2)c1[N+](=O)[O-])S(C)(=O)=O`: the TGI in [1], in [2], in assay [3], in assay [4], in assay [5] and in assay [6] was > 100 µM in each case. Also, the TGI in [7] is > 100 µM; in assay [8], > 100 µM; in assay [9], > 100 µM; in assay [10], 74.7 µM; in [11] it was > 100 µM; in assay [12] it was > 100 µM. Further, the TGI in assay [13], in [14], in assay [15], in assay [16] and in [17] was > 100 µM each time.

`CC1OC(OC2C(OC(=O)[C@]34CCC(C)(C)C[C@H]3C3=CC[C@@H]5[C@@]6(C)CC[C@H](OC7OC(CO)C(O)C(O)C7OC7OC(CO)C(O)C(O)C7O)C(C)(C)[C@@H]6CC[C@@]5(C)[C@]3(C)CC4)OCC(O)C2O)C(O)C(O)C1OC1OCC(O)C(O)C1O` (some centres not stated): the TGI in [1] was 12.6 µM; in [2], 29.5 µM; in assay [3], > 100 µM; in assay [4] it was 19.8 µM; in [5], 9.17 µM; in assay [6], 6.17 µM. For the same compound, the TGI is 16.7 µM in [7]; 26.2 µM in assay [8]; 21.4 µM in assay [9]; 7.34 µM in [10]; > 67.4 µM in [11]; 25.7 µM in assay [12]. The TGI is > 100 µM in [13]; 22.2 µM in assay [14]; 23.7 µM in assay [15]; 31.6 µM in assay [16]; 12.1 µM in [17].

As for `C#CCN(C(=O)C(F)(F)F)C(/C=C\C(=O)OC)(C(=O)OCC)C(=O)OCC`, the TGI in assay [1], in assay [2], in assay [3], in [4], in assay [6] and in assay [7] was > 100 µM in each case. In addition, the TGI in [8], in [9], in assay [10], in assay [11], in assay [12] and in [13] was > 100 µM each time. The TGI in [14], in [15], in assay [16] and in [17] was > 100 µM throughout.

For `O=C1CSC(c2cc3cc(Br)ccc3nc2Cl)N1c1ccc(Cl)cc1` (configuration not stated), the TGI in assay [1] is 75.8 µM; in [2], 81.5 µM; in [3], 41.3 µM; in assay [4], > 100 µM; in assay [5], 42.5 µM; in assay [6] it was > 100 µM. The TGI in assay [7] is 84.9 µM; in assay [8], > 100 µM; in [9], > 100 µM; in assay [10], 49.5 µM; in assay [11], 42.1 µM; in [12] it was 37.6 µM. Further, the TGI in [13] is 37.8 µM; in assay [14], > 100 µM; in [15], 61.5 µM; in [16], > 100 µM; in assay [17], 57.3 µM.

Regarding `N/C(CCSCCSCC/C(N)=N\O)=N\O`, the TGI in [1], in assay [2], in [3], in assay [4], in assay [6] and in assay [7] was > 100 µM throughout. In addition, the TGI in assay [8], in [9], in [10], in assay [11], in assay [13] and in [14] was > 100 µM each time. For the same compound, the TGI in assay [15], in assay [16] and in [17] was > 100 µM in each case.

On to `CC(=O)Oc1ccc(-c2nnc(-c3ccc(OC(C)=O)cc3)nn2)cc1`, for which the TGI in [1], in assay [2], in assay [3], in assay [4], in [5] and in assay [6] was > 100 µM throughout. Besides, the TGI in [7], in [8], in [9], in assay [10], in assay [11] and in assay [12] was > 100 µM in each case. The TGI in assay [13], in assay [14], in assay [15], in [16] and in [17] was > 100 µM each time.

For the compound `N#CC1=C(S)N(C2OC(CO)C(O)C(O)C2O)C(c2ccccc2)=CC1c1ccco1` (configuration not stated), the TGI in [1], in assay [2], in [3], in [4], in assay [5] and in assay [6] was > 100 µM in each case. Besides, the TGI in assay [7], in assay [8], in assay [9], in assay [10], in [11] and in assay [12] was > 100 µM each time. Further, the TGI in assay [13], in assay [14], in [15], in assay [16] and in assay [17] was > 100 µM throughout.

On to `O=C(/C=C/c1ccccc1)CCN1CCCCC1`, for which the TGI in [1] is > 100 µM; in assay [2], > 100 µM; in assay [3], > 100 µM; in [4] it was 43.3 µM; in assay [5] it was > 100 µM; in assay [6] it was > 100 µM. The TGI in assay [7] is 32.4 µM; in assay [8], > 100 µM; in [9], > 100 µM; in assay [10], 84.4 µM; in [11] it was > 100 µM; in assay [12], > 100 µM. In addition, the TGI in [13] was 37.7 µM; in [14], 63.9 µM; in assay [15], > 100 µM; in [16] it was 66.1 µM; in assay [17], 47.4 µM.

For the compound `COC(=O)/C(=N\N)C(C(=O)C(=O)Nc1cc(Cl)ccc1Cl)c1nc2ccc([N+](=O)[O-])cc2[nH]c1=O` (configuration not stated), the TGI in assay [1], in [2], in assay [3], in [4], in assay [5] and in [6] was > 100 µM throughout. Moreover, the TGI in [7], in assay [8], in assay [9], in assay [10], in assay [11] and in assay [12] was > 100 µM each time. In addition, the TGI in assay [13], in assay [14], in assay [15], in [16] and in [17] was > 100 µM each time.

Turning to `O=C1C(Cl)=CC2(C=C1Cl)CCN=c1c(O)c3c(c(O)c12)=NC=N3`, the TGI in [1] is 43.4 µM; in assay [2], > 100 µM; in assay [3], 89.1 µM; in assay [4], 71.8 µM; in assay [5], 52.4 µM; in assay [6] it was > 100 µM. Also, the TGI in [7] is > 100 µM; in assay [8] it was > 100 µM; in assay [9], > 100 µM; in assay [10] it was 32.7 µM; in assay [11], > 100 µM; in assay [12], > 100 µM. Moreover, the TGI in assay [13] was 88.4 µM; in assay [14], > 100 µM; in [15], 75.2 µM; in [16], 80.9 µM; in assay [17], 51.8 µM.

Take `CCOC(=O)c1c(C)n(-c2ccc(C)cc2)c(=O)c2ccccc2c(=O)c2c(=O)ccc(=O)c1=2`: the TGI was 32.5 µM in assay [1]; 58.5 µM in assay [2]; 29.8 µM in assay [3]; 38.7 µM in [4]; 51.2 µM in [5]; > 100 µM in assay [6]. Further, the TGI is 42.9 µM in assay [7]; 59.7 µM in assay [8]; 54.2 µM in assay [9]; 30.2 µM in [10]; 44.9 µM in [11]; 43.7 µM in assay [13]. The TGI in [14] is > 100 µM; in [15] it was 57.9 µM; in assay [16] it was 24.9 µM; in assay [17], 42.6 µM.

`CS(=O)(=O)CCC1CCC(=O)O1` (configuration not stated): the TGI in assay [1], in [3], in [4], in assay [5], in assay [6] and in assay [7] was > 100 µM each time. For the same compound, the TGI in assay [8], in assay [9], in assay [10], in assay [11], in [12] and in [13] was > 100 µM each time. Also, the TGI in assay [14], in [15], in [16] and in [17] was > 100 µM in each case.

As for `Cc1nn(C(=O)Cc2ccccc2)c2c1C(c1ccc(/C=C/c3ccccc3)cc1)SC(N)=N2` (configuration not stated), the TGI in assay [1], in assay [4], in [5], in assay [6], in [7] and in assay [8] was > 100 µM each time. For the same compound, the TGI in [9], in assay [10], in assay [11], in assay [12], in assay [13] and in [14] was > 100 µM throughout. The TGI in [15], in assay [16] and in assay [17] was > 100 µM each time.

`N#CCc1nc(-c2cc3ccccc3oc2=O)cs1`: the TGI in assay [1], in assay [2], in assay [4], in assay [5], in assay [6] and in [7] was > 100 µM each time. Also, the TGI in assay [8], in assay [9], in assay [10], in [11], in assay [12] and in assay [13] was > 100 µM in each case. Further, the TGI in assay [14] was > 100 µM; in [15], 66.8 µM; in assay [16], > 100 µM; in [17], > 100 µM.

Consider `N#CCC(=O)N/N=C\C(O)C(O)C(O)C(O)CO` (configuration not stated), for which the TGI in [1], in assay [3], in assay [4], in [5], in assay [6] and in assay [7] was > 100 µM in each case. The TGI in assay [8], in [9], in assay [10], in assay [11], in [12] and in assay [13] was > 100 µM throughout. The TGI in assay [14], in [15], in [16] and in assay [17] was > 100 µM each time.

As to `COC(=O)C1=C(OC)C(=P2(c3ccccc3)CC(c3ccccc3)=C2c2ccccc2)C(C(=O)OC)=C1C(=O)OC` (configuration not stated), the TGI in assay [1] is > 78.2 µM; in assay [2], > 100 µM; in [3], > 100 µM; in assay [5] it was > 100 µM; in assay [6], > 100 µM; in assay [7], > 100 µM. Moreover, the TGI in assay [8] is > 100 µM; in assay [9], > 100 µM; in assay [10] it was > 100 µM; in assay [11], > 81.7 µM; in [12], > 100 µM; in [13], > 95.5 µM. Further, the TGI is > 100 µM in [14], > 100 µM in assay [15], > 31.2 µM in assay [16] and 13.6 µM in assay [17].

These data come from PubChem BioAssay (NCI).
